Data from patent publication US12150940B2, “WASp-protecting small molecules, compositions, methods and uses thereof in the treatment of innate and acquired immune-related disorders or conditions” (BAR ILAN UNIVERSITY, priority 2016, dated 2024).

Columns and labels:
platelets = assay: Platelet intra-cellular calcium concentration (Indo-1-AM); assay type: cell-based, human; details: TRAP-6 10 μM, vs solvent
Protocol: Freshly-isolated human platelets were incubated with either control DMSO or the indicated WASp-binding SMCs, specifically, SMC #6 (FIG. 11A), SMC #30 (FIG. 11B), SMC #33 (FIG. 11C) and SMC #34 (FIG. 11D). Platelets were stimulated with TRAP-6 and calcium levels were measured by spectrofluorometer, as described in Experimental procedures. Data are representative of three independent experiments.
Cells were incubated with 5 μM Indo-1-acetoxymethylester (Indo-1-AM, Teflabs) in Tyrode's buffer at 37° C. for 20 min. The cells were washed once, resuspended in Tyrode's buffer containing 10 mM HEPES and maintained at room temperature for 20 min. The cells were incubated at 37° C. for 5 min before measurements and then stimulated with 10 μM TRAP-6. The Ca^2+ influx was measured by spectrofluorometer using the Synergy 4 Microplate Reader (Bio Tek).
However, following receptor-mediated stimulation, platelets dramatically elevate their intra-cellular calcium concentrations, which in turn serve as signaling cues that evoke platelet effector functions, including platelet spreading, adhesion and aggregation (Varga-Sabo et al, 2009). Therefore, the ability of WASp-protecting SMCs to upregulate intra-cellular calcium accumulation in activated platelets was next tested. Freshly-isolated human platelets were incubated with SMC #6, #30, #33 and #34 or with the solvent (negative control). Following incubation, platelets were stimulated with thrombin receptor activator peptide TRAP-6 (10 μM) and calcium levels were measured by spectrofluorometer, using Indo-1-AM-based calcium assay as described in Experimental procedures.

WIP-WASp interaction = target: T1, WIP-WASp interaction (Homo sapiens, UniProt P42768, K230R/R34Q); assay: FRET analysis of WIP-WASp interaction in activated T-cells expressing CFP-WASp and YFP-WIP; assay type: cell-based; details: anti-CD3 stimulatory coverslips, fixed after 5 min; mean ± SE
T1 construct: expressed in transfected cells
T1 sequence (P42768 whole entry R34Q/K230R): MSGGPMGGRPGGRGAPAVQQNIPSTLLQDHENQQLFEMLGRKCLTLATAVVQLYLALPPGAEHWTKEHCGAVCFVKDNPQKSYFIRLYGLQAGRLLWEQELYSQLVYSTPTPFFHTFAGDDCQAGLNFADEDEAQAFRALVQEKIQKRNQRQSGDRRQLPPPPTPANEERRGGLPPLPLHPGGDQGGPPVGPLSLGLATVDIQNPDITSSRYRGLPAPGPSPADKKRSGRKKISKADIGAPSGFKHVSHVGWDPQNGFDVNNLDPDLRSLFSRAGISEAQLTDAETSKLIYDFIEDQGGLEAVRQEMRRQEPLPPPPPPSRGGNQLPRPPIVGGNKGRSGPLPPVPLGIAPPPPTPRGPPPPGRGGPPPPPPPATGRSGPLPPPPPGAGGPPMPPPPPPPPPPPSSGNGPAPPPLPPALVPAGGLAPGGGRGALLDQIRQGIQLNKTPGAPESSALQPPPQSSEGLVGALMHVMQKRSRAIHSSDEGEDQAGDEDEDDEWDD
T1 sequence (O43516 whole entry partner): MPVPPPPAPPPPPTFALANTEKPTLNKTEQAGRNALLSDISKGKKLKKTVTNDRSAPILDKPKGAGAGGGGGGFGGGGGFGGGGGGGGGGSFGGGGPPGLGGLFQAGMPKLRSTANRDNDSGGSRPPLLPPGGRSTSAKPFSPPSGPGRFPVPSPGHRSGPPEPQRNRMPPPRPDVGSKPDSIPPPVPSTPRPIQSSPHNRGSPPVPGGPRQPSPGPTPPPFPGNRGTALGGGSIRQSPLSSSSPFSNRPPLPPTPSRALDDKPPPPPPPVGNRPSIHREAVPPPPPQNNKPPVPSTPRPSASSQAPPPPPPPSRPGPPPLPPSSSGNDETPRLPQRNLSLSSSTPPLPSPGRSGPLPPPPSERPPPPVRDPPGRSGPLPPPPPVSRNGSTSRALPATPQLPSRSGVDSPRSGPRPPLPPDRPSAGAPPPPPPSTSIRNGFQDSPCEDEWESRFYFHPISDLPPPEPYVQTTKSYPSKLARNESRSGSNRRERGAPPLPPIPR
Protocol: FIG. 13A: Jurkat T cells stably expressing CFP-WASp and YFP-WIP were treated with WASp-binding SMC #6, SMC #30, SMC #33, SMC #34 or control. The cells were then plated on stimulatory coverslips (coated with an anti-CD3 antibody), and fixed after 5 min. Cells were imaged by confocal microscope, and FRET efficiency was measured by the donor-sensitized acceptor emission technology (see Experimental procedures for details).
FIG. 13B: graph summarizing the percentage FRET efficiency in cells plated on the stimulatory coverslips, with the indicated treatment. Data are from four independent experiments. Error bars represent the SE from the mean. P values were calculated by two-tailed Student's t-test.
Spreading assays were performed as previously described (Fried et al, 2014; Barda-Saad 2005). Briefly, T cells (2×10^6 cells/ml) were seeded on the bottom of chambered cover glasses (LabTek) that were pre-coated with anti-CD3 stimulatory monoclonal antibodies (10 μg/ml). The cells were incubated in imaging buffer [RPMI without phenol red containing 10% fetal calf serum (FCS) and 25 mM HEPES] at 37° C., 5% CO2, for the times indicated in the figure legends. Cells were fixed for 25 min with 4% paraformaldehyde in phosphate-buffered saline (PBS) and then were washed three times with PBS.
Double-color FRET was performed as described previously (Barda-Saad et al, 2005; Pauker, 2011, Pauker, 2012). […] The non-FRET components were calculated and removed with calibration curves derived from images of single-labeled cells containing CFP or YFP, as previously described (Barda-Saad et al, 2005). […] Bleed-through components were calculated as a function of the intensity of the expressed fluorescent proteins with data gathered from single-labeled cell lines. By using the intensity measured pixel by pixel through the different filter sets, as well as cross-talk elements that were isolated from the control, single-labeled cells, the measured FRET was corrected and the actual FRET efficiency at every pixel was determined. The relative FRET efficiency (FRETeff) was calculated on a pixel-by-pixel basis with the following equation: FRETeff=FRETcorr/(FRETcorr+donor)×100%, where FRETcorr is the pixel intensity in the corrected FRET image, and donor is the intensity of the corresponding pixel in the appropriate donor channel image. To increase the reliability of the calculations and to prevent low-level noise from distorting the calculated ratio, the inventors excluded pixels below 50 intensity units, as well as saturated pixels from the calculations, and set their intensities to zero. […] The FRET efficiency in the negative control system was measured and calculated in the same manner as that in the main experiment. […]

average FRET efficiency (WIP-WASp interaction) | SMILES | intra-cellular calcium concentration in activated platelets (platelets)
22.7±1.4% | CC(=O)N[C@H]1C[C@@H](c2ccc3c(c2)nnn3C)O[C@@H](c2ccc(Cl)cc2)C1 [SMC #6, N-[(2R,4R,6S)-2-(4-chlorophenyl)-6-(1-methylbenzotriazol-5-yl)oxan-4-yl]acetamide] | dramatically enhanced
21.4±1.4% | Cc1ccccc1N(CC(=O)NCc1ccccc1)C(=O)CCC(=O)Nc1nccs1 [SMC #33, N′-[2-(benzylamino)-2-oxoethyl]-N′-(2-methylphenyl)-N-(1,3-thiazol-2-yl)butanediamide] | dramatically enhanced

SMILES | average FRET efficiency (WIP-WASp interaction) | intra-cellular calcium concentration in activated platelets (platelets)
CC1CCCC(C)N1C(=O)CSc1nnc(COc2cccc3cccnc23)o1 (stereo not drawn) [SMC #34, 1-(2,6-dimethylpiperidin-1-yl)-2-[[5-(quinolin-8-yloxymethyl)-1,3,4-oxadiazol-2-yl]sulfanyl]ethanone] | 23.8±1.1% | dramatically enhanced
